This note sets out measurements from patent US20050191735A1, “Oxidoreductase” (priority 2003, published 2005).

Like-named read-outs stand apart in the source and are kept apart here.

The subject of series [1] is recombinant Lactobacillus reuteri oxidoreductase. The experiment in a line: Substrate spectrum in standard measurement mixture. It counts as biochemical. The conditions noted are these: for NADP-dependent dehydrogenase activity: oxidation of the hydroxy ester.
In series [2] the test system is L. reuteri oxidoreductase. The experiment in a line: Solvent stability: enzyme activity after contact with organic solvents. It is filed as biochemical, Lactobacillus reuteri. As to conditions: for Activity 8 h / Activity 24 h: room temperature; for stability with respect to organic solvents: in words. As to the method: The enzyme stability when making contact with organic solvents was studied by diluting the L. reuteri oxidoreductase 1:400 (in the case of water-miscible organic solvents) with the solvent mixtures indicated and incubating at room temperature. Subsequently, 10 μl of the enzyme solution were used in the standard assay mixture. Here too, the starting value was set to 100% after dilution in the buffer (potassium phosphate buffer 100 mM, pH=7.0, 1 mM MgCl2) and all other values were related thereto.
In the case of the water-immiscible organic solvents, dilution was likewise carried out in potassium phosphate buffer, the same volume of organic solvent was added to the mixture and the mixture incubated at room temperature in a thermal mixer at rpm=170. The activity was measured from the aqueous phase.

Series [3] in a line: pH stability of recombinant L. reuteri oxidoreductase. It counts as physicochemical. As to the method: The dependence of the activity of the enzyme on storage in buffers of different pH was studied for the pH range from 4 to 11. For this purpose, various buffers (50 mM) in the pH range from 4 to 11 were prepared and the enzyme overexpressed in example 4 was diluted therein 1:200 and incubated for 30, 60 and 300 min. All buffers contained 1 mM MgCl2. 10 μl thereof were then used in the normal activity assay. The starting value here is the measurement value obtained immediately after diluting the enzyme in potassium phosphate buffer 50 mM pH=7.0. Said value corresponded under predefined conditions to a change in extinction of 0.70/min and was set to 100% and all subsequent measurement values were related to this value.

Series [4] can be described thus: Temperature optimum of recombinant L. reuteri oxidoreductase. It counts as biochemical.
The nature of series [5]: Temperature stability of recombinant L. reuteri oxidoreductase. As to conditions: after only 30 min. It is filed as physicochemical. As to the method: The temperature stability for the range from 15° C. to 70° C. was determined in a manner similar to that described under 5.2. […] Here too, the starting value used was the measurement value which is obtained immediately after diluting the enzyme in potassium phosphate buffer 50 mM pH=7.0 and which was set to 100% here, too.

The nature of series [6]: pH optimum of recombinant L. reuteri oxidoreductase. It counts as biochemical. The method, then:
Preparation of the following measurement buffers, all of which are 50 mM, contain 1 mM MgCl2 and have different pH values.
Enzyme diluted as required (1:20)
A pH optimum of between 6.5 and 7 was determined for the enzyme of the invention.

Substrate in series [7]: CCCC(=O)C(=O)OCC
The experiment in a line: Determination of Km and vmax. It counts as biochemical, Lactobacillus reuteri. As to conditions: other: potassium phosphate buffer pH=7.0, enzyme solution 1:300.

Setting [8] is: Oxidation, activity with ethyl 2-oxo-4-phenylbutyrate set to 100%.
Setting [9] is: reduction with NADPH, activity with ethyl 2-oxo-4-phenylbutyrate set to 100%.
The mark [10] stands for this setting: water-miscible solvent mixture or buffer, enzyme 1:400, starting value 100%.
[11] abbreviates: water-immiscible solvent, same volume as buffer, activity from the aqueous phase.

As for `CCOC(=O)[C@H](O)CCc1ccccc1`, in series [1] (setting [8]), the Relative activity % turned out to be 0%. For the same molecule, the NADP-dependent dehydrogenase activity entry in series [1] is on record as “no NADP-dependent dehydrogenase activity”.

Take `CC(=O)Cc1ccccc1` [1-Phenyl-2-propanone]: the Relative activity % in series [1] (setting [9]) stood at 3%.

Turning to `O=C(CCl)c1cccc(Cl)c1` [2-Chloro-l-(3-chloro-phenyl)-ethan-1-one], the Relative activity % in series [1] is recorded as 0%.

Turning to `CCCCCCC(C)=O` [2-Octanone], the Relative activity % in series [1] (setting [9]) turned out to be 1%.

With `O=C(O)C(=O)Cc1ccccc1` [2-Oxo-3-phenyl-propionic acid], the Relative activity % in series [1] (setting [9]) is recorded as 0.5%.

Consider `CCCC(=O)C(=O)O` [2-Oxovaleric acid], for which the Relative activity % in series [1] (setting [9]) was 0%.

Take `CC(C)O` [2-Propanol]: in series [1] (setting [8]), the Relative activity % is on record as 0%.

In the case of `CCC(=O)C(=O)O` [2-oxobutyric acid], the Relative activity % in series [1] (setting [9]) is recorded as 0%.

Regarding `CCCCCC(=O)CC` [3-Octanone], in series [1] (setting [9]), the Relative activity % is recorded as 4%.

As to `CCO` [5% EtOH, EtOH], in series [2] (setting [10]), the “Activity 8 h” value stood at 64% and the “Activity 24 h” value is 65%.

Take `CC(C)O` [5% Isopropanol, Isopropanol]: in series [2] (setting [10]), the “Activity 8 h” value is recorded as 77% and the “Activity 24 h” value amounted to 77%.

With `C[S+](C)[O-]` [10% DSMO], in series [2] (setting [10]), the “Activity 8 h” value is 80% and the “Activity 24 h” value was 80%.

Take `CCO` [10% EtOH, EtOH]: in series [2] (setting [10]), the “Activity 8 h” value is recorded as 68% and the “Activity 24 h” value is reported as 70%.

Consider `CC(C)O` [10% Isopropanol, Isopropanol], for which, in series [2] (setting [10]), the “Activity 8 h” value worked out at 86% and the “Activity 24 h” value worked out at 85%.

As to `C[S+](C)[O-]` [20% DSMO], in series [2] (setting [10]), the “Activity 8 h” value came to 79% and the “Activity 24 h” value stood at 80%.

Regarding `CCO` [20% EtOH, EtOH], in series [2] (setting [10]), the “Activity 8 h” value was determined as 83% and the “Activity 24 h” value is on record as 80%.

For the molecule `CC(C)O` [20% Isopropanol, Isopropanol], in series [2] (setting [10]), the “Activity 8 h” value was 100% and the “Activity 24 h” value is 100%.

Turning to `CCO` [30% EtOH, EtOH], in series [2] (setting [10]), the “Activity 8 h” value is listed as 77% and the “Activity 24 h” value is given as 75%.

Turning to `CC(C)O` [30% Isopropanol, Isopropanol], in series [2] (setting [10]), the “Activity 8 h” value is given as 0% and the “Activity 24 h” value is recorded as 0%.

As for `CC(C)=O` [Acetone], the Relative activity % in series [1] (setting [9]) is recorded as 0%.

For `CC(=O)c1ccccc1` [Acetophenone], the Relative activity % in series [1] (setting [9]) is 0%.

Turning to `CCCCOC(C)=O` [Butyl acetate], in series [2] (setting [11]), the “Activity 8 h” value amounted to 74% and the “Activity 24 h” value was 12%.

As to `CCCCCCCC(=O)c1ccccc1` [Caprylophenone], the Relative activity % in series [1] (setting [9]) is 0%.

With `ClC(Cl)Cl` [Chloroform], in series [2] (setting [11]), the “Activity 8 h” value was 6% and the “Activity 24 h” value is reported as 0%.

As for `C1CCCCC1` [Cyclohexane], in series [2] (setting [11]), the “Activity 8 h” value was 113% and the “Activity 24 h” value came out at 100%.

For the molecule `CCOCC` [Diethyl ether], in series [2] (setting [11]), the “Activity 8 h” value is recorded as 32% and the “Activity 24 h” value turned out to be 20%.

With `CC(C)OC(C)C` [Diisopropyl ether], in series [2] (setting [11]), the “Activity 8 h” value stood at 94% and the “Activity 24 h” value was found to be 77%.

Consider `COC(=O)CCCCC(=O)CC(=O)OC` [Dimethyl-3-oxo-1,8-octanedioic acid], for which the Relative activity % in series [1] (setting [9]) was 42%.

With `CCCC(=O)C(=O)OCC` [Ethyl 2-oxovalerate], the Relative activity % in series [1] (setting [9]) stood at 190%.

Turning to `CCOC(=O)CC(=O)CC` [Ethyl 3-oxo-valerate], in series [1] (setting [9]), the Relative activity % was 1.3%.

Turning to `CCOC(=O)CC(=O)CCl` [Ethyl 4-chloro-acetoacetate], in series [1] (setting [9]), the Relative activity % stood at 16%.

Regarding `CCOC(=O)CCCCC(=O)CCCl` [Ethyl 8-chloro-6-oxooctanoic acid], the Relative activity % in series [1] (setting [9]) came to 190%.

Regarding `CCOC(=O)[C@@H](C)O` [Ethyl D-lactate], in series [1] (setting [8]), the Relative activity % amounted to 0%. Also, the NADP-dependent dehydrogenase activity result in series [1] was “no NADP-dependent dehydrogenase activity”.

`CCOC(=O)[C@H](C)O` [Ethyl L-lactate]: in series [1] (setting [8]), the Relative activity % turned out to be 0%. For the same molecule, the NADP-dependent dehydrogenase activity result in series [1] is given as “no NADP-dependent dehydrogenase activity”.

Consider `CCOC(C)=O` [Ethyl acetate], for which, in series [2] (setting [11]), the “Activity 8 h” value was 0% and the “Activity 24 h” value is on record as 0%.

For the molecule `CCOC(=O)C(=O)c1ccccc1` [Ethyl phenylglyoxylate], in series [1] (setting [9]), the Relative activity % turned out to be 2%.

In the case of `CCOC(=O)C(C)=O` [Ethyl pyruvate], the Relative activity % in series [1] (setting [9]) was 2%.

For `CCCCCCC` [Heptane], in series [2] (setting [11]), the “Activity 8 h” value was determined as 113% and the “Activity 24 h” value was determined as 100%.

As to `CCCCCC` [Hexane], in series [2] (setting [11]), the “Activity 8 h” value came to 115% and the “Activity 24 h” value came out at 100%.

Consider `COC(C)(C)C` [MTBE], for which, in series [2] (setting [11]), the “Activity 8 h” value is recorded as 90% and the “Activity 24 h” value was found to be 81%.

With `COC(=O)CC(C)=O` [Methyl acetoacetate], the Relative activity % in series [1] (setting [9]) stood at 0.3%.

`O=C(O)C[C@H](O)CCl` [S-4-Chloro-3-hydroxy-butyrate]: the Relative activity % in series [1] (setting [8]) worked out at 0%. Also, the NADP-dependent dehydrogenase activity result in series [1] is given as “no NADP-dependent dehydrogenase activity”.

For R-4-Chloro-3-hydroxy-butyrate, in series [1] (setting [8]), the Relative activity % is given as 0%. Also, the NADP-dependent dehydrogenase activity entry in series [1] is reported as “no NADP-dependent dehydrogenase activity”.

B1: recombinant L. reuteri oxidoreductase (Limosilactobacillus reuteri subsp. reuteri) (protein)
chain: MKNIMIAGAGVLGSQIAYQTALSGFNVSVYNHHIDTAERRIKALKSDYERDLHLTDKEFQQGLNNIKVITDDVATAVKDADLMIEALPESLELKEQFYEEVSELAPEKTIFASNSSTFIPSQLAPYTDRPEKFLNMHFANQIWKFNVVEIMGTSQTSPEVIEEATKFAREIKMVPVILNKEQHGYILNSLLIPLLASGLSLWAKGVADPAMIDKDWMISTGAPMGPFGILDMVGLRTAAQIERNAYAQTKDESHKEIADKMEQMIQEGHEGKESGQGFYNYPNPAFMDPDFLKH
Regarding B1, the remaining activity in series [3] (pH 4.0, after 5 h) was found to be 50%; in series [3] (pH 9.0, after 5 h), 40%. Moreover, the “stability at high pH” value in series [3] (pH values above 9.5) is “immediate inactivation”. Besides, the “Activity in U/ml of undiluted enzyme” value in series [4] (15 ° C.) is 385 U/ml of undiluted enzyme; in series [4] (20 ° C.), 745 U/ml of undiluted enzyme; in series [4] (25 ° C.) it was 1090 U/ml of undiluted enzyme; in series [4] (30 ° C.), 1350 U/ml of undiluted enzyme; in series [4] (35 ° C.), 1860 U/ml of undiluted enzyme; in series [4] (40 ° C.), 2500 U/ml of undiluted enzyme. Also, the “Activity in U/ml of undiluted enzyme” value is 2900 U/ml of undiluted enzyme in series [4] (45 ° C.); 3200 U/ml of undiluted enzyme in series [4] (50 ° C.); 3800 U/ml of undiluted enzyme in series [4] (55 ° C.); 617 U/ml of undiluted enzyme in series [4] (60 ° C.); 180 U/ml of undiluted enzyme in series [4] (65 ° C.); 90 U/ml of undiluted enzyme in series [4] (70 ° C.). In addition, the “optimal temperature (maximum activity)” value in series [4] (standard measurement mixture, 15° C. to 70° C.) came to 55 °C. In addition, in series [5], the “enzyme activity after incubation at 55° C.” value is on record as “no longer detectable”. For the same molecule, the “share of maximum activity” value in series [6] (in the pH range from 4.5 to 8) is recorded as 80%. Moreover, in series [6] (pH values of below 4.0 and above 8.5), the “activity outside the pH range” value is “rapidly decreasing”. Also, the figures for the “stability with respect to organic solvents” value in series [2] and in series [2] (listed as Lactobacillus reuteri oxidoreductase) were “remarkably stable” and “high stability”, respectively. Besides, in series [7], the Michaelis constant (Km) was 180 ± 70 µM.
